We go through four compounds from article PMC9090415, “Discovery of small molecule inhibitors of Plasmodium falciparum apicoplast DNA polymerase” (Journal of Enzyme Inhibition and Medicinal Chemistry, 2022).

The target of the assay is T1, bacteriophage T4 DNA polymerase (Enterobacteria phage T4, UniProt P04415).
T1 construct: made in house
T1 sequence (P04415 1-898): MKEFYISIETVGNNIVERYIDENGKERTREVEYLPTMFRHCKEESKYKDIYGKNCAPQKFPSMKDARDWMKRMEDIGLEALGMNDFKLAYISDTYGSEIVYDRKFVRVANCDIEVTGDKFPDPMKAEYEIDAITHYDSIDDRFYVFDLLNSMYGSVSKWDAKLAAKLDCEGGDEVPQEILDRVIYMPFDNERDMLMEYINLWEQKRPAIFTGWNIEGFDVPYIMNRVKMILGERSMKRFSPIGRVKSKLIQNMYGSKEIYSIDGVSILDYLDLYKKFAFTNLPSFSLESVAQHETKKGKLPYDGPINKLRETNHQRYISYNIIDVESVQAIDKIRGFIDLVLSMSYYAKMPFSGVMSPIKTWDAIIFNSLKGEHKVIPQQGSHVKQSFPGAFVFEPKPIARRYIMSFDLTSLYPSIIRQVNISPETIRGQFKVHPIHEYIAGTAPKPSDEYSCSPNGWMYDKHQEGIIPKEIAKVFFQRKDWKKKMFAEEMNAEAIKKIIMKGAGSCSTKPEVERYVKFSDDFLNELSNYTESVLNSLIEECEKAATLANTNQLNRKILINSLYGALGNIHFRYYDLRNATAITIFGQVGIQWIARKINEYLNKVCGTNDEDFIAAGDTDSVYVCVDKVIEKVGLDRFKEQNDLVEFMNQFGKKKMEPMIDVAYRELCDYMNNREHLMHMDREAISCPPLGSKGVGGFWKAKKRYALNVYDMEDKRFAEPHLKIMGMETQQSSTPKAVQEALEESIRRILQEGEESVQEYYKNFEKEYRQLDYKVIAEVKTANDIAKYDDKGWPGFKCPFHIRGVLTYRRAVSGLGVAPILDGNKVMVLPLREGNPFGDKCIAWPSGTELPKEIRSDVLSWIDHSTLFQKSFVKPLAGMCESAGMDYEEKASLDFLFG
In words: Counter-screen against bacteriophage T4 DNA polymerase. The assay is classed as biochemical. To be noted: for % inhibition T4 10' 2.5 / % inhibition T4 10' 5 / % inhibition T4 10' 10 / % inhibition T4 10' 20 / % inhibition T4 10' 40 / % inhibition T4 10' 80: read at 10'; for % inhibition T4 70' 2.5 / % inhibition T4 70' 5 / % inhibition T4 70' 10 / % inhibition T4 70' 20 / % inhibition T4 70' 40 / % inhibition T4 70' 80: read at 70'; for % inhibition T4 130' 2.5 / % inhibition T4 130' 5 / % inhibition T4 130' 10 / % inhibition T4 130' 20 / % inhibition T4 130' 40 / % inhibition T4 130' 80: read at 130'; for % inhibition T4 40' 2.5 / % inhibition T4 40' 5 / % inhibition T4 40' 10 / % inhibition T4 40' 20 / % inhibition T4 40' 40 / % inhibition T4 40' 80: read at 40'; for % inhibition T4 90' 2.5 / % inhibition T4 90' 5 / % inhibition T4 90' 10 / % inhibition T4 90' 20 / % inhibition T4 90' 40 / % inhibition T4 90' 80: read at 90'; for % inhibition T4 180' 2.5 / % inhibition T4 180' 5 / % inhibition T4 180' 10 / % inhibition T4 180' 20 / % inhibition T4 180' 40 / % inhibition T4 180' 80: read at 180'. The gist of the method:
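Purified T4 DNA polymerase, a B-family enzyme, served as the counter-screen enzyme. Compounds were tested in dose-response format and IC50 values were derived.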

For `Nc1cc(Oc2ccc(O)c(N)c2)ccc1O` [KU0034728], where the note is “DRC-1, concentration 2.5”, the “% inhibition T4 10' 2.5” value was 10.6184%, the “% inhibition T4 70' 2.5” value is listed as 10.2077% and the “% inhibition T4 130' 2.5” value was found to be 10.8947%. Also, for the setting “DRC-1, concentration 5”, the “% inhibition T4 10' 5” value came to 9.797%, the “% inhibition T4 70' 5” value came to 9.3179% and the “% inhibition T4 130' 5” value came to 9.975%. Besides, under “DRC-1, concentration 10”, the “% inhibition T4 10' 10” value is on record as 12.6946%, the “% inhibition T4 70' 10” value worked out at 12.3114% and the “% inhibition T4 130' 10” value was determined as 11.1726%. Moreover, where the note is “DRC-1, concentration 20”, the “% inhibition T4 10' 20” value was 6.887%, the “% inhibition T4 70' 20” value is 7.7965% and the “% inhibition T4 130' 20” value stood at 8.154%. Further, under “DRC-1, concentration 40”, the “% inhibition T4 10' 40” value is reported as 15.6951%, the “% inhibition T4 70' 40” value came to 14.4419% and the “% inhibition T4 130' 40” value is 14.6568%. Besides, for the setting “DRC-1, concentration 80”, the “% inhibition T4 10' 80” value came out at 21.8837%, the “% inhibition T4 70' 80” value worked out at 19.0676% and the “% inhibition T4 130' 80” value is on record as 18.4293%. For the same compound, under “DRC-2, concentration 2.5”, the “% inhibition T4 10' 2.5” value is reported as -8.57%, the “% inhibition T4 40' 2.5” value is given as -8%, the “% inhibition T4 90' 2.5” value is given as -7% and the “% inhibition T4 180' 2.5” value is recorded as -11%. In addition, for the setting “DRC-2, concentration 5”, the “% inhibition T4 10' 5” value is -11%, the “% inhibition T4 40' 5” value is given as -11%, the “% inhibition T4 90' 5” value is -9.49% and the “% inhibition T4 180' 5” value is given as -15%. Moreover, where the note is “DRC-2, concentration 10”, the “% inhibition T4 10' 10” value was -3.21%, the “% inhibition T4 40' 10” value was -5.5%, the “% inhibition T4 90' 10” value is recorded as -3.47% and the “% inhibition T4 180' 10” value is given as -8%. In addition, where the note is “DRC-2, concentration 20”, the “% inhibition T4 10' 20” value was -7%, the “% inhibition T4 40' 20” value was -8%, the “% inhibition T4 90' 20” value is -7% and the “% inhibition T4 180' 20” value is given as -11%. Where the note is “DRC-2, concentration 40”, the “% inhibition T4 10' 40” value is listed as 3.18%, the “% inhibition T4 40' 40” value is -2.76%, the “% inhibition T4 90' 40” value is recorded as -4.46% and the “% inhibition T4 180' 40” value is -7.51%. Also, under “DRC-2, concentration 80”, the “% inhibition T4 10' 80” value was 12%, the “% inhibition T4 40' 80” value is recorded as -1.54%, the “% inhibition T4 90' 80” value is listed as -9% and the “% inhibition T4 180' 80” value is -14%.
Turning to `O=C1CCCC2=C1C(c1ccccn1)C1=C(CCCC1=O)O2` [KU0194228], the “% inhibition T4 10'” value (DRC-2, concentration 10) is reported as 18%. The “% inhibition T4 40'” value (DRC-2, concentration 20) is 18%.
With `O=C(CCc1csc(NC(=O)Nc2ccccc2)n1)Nc1nc2ccccc2s1` [KU0177354], for the setting “DRC-1, concentration 2.5”, the “% inhibition T4 10' 2.5” value was 0.07751%, the “% inhibition T4 70' 2.5” value is 1.62% and the “% inhibition T4 130' 2.5” value is recorded as -0.4187%. Moreover, under “DRC-1, concentration 5”, the “% inhibition T4 10' 5” value is listed as 7.751%, the “% inhibition T4 70' 5” value is listed as 6.65% and the “% inhibition T4 130' 5” value is 3.945%. Also, for the setting “DRC-1, concentration 10”, the “% inhibition T4 10' 10” value is 13.5789%, the “% inhibition T4 70' 10” value was 12.106% and the “% inhibition T4 130' 10” value amounted to 9.972%. Moreover, for the setting “DRC-1, concentration 20”, the “% inhibition T4 10' 20” value came out at 14.0599%, the “% inhibition T4 70' 20” value was found to be 12.7058% and the “% inhibition T4 130' 20” value is on record as 11.4415%. Where the note is “DRC-1, concentration 40”, the “% inhibition T4 10' 40” value is 17.0084%, the “% inhibition T4 70' 40” value was determined as 16.9924% and the “% inhibition T4 130' 40” value was found to be 15.4247%. Also, under “DRC-1, concentration 80”, the “% inhibition T4 10' 80” value is listed as 35.4647%, the “% inhibition T4 70' 80” value is 32.2475% and the “% inhibition T4 130' 80” value was determined as 30.1254%. Under “DRC-2, concentration 2.5”, the “% inhibition T4 10' 2.5” value is listed as -8%, the “% inhibition T4 40' 2.5” value is reported as -8%, the “% inhibition T4 90' 2.5” value was -7% and the “% inhibition T4 180' 2.5” value is reported as -11%. Further, for the setting “DRC-2, concentration 5”, the “% inhibition T4 10' 5” value is recorded as 2.7%, the “% inhibition T4 40' 5” value is 2%, the “% inhibition T4 90' 5” value was found to be 3% and the “% inhibition T4 180' 5” value is reported as -1.4%. Further, where the note is “DRC-2, concentration 10”, the “% inhibition T4 10' 10” value came to 9%, the “% inhibition T4 40' 10” value was found to be 9%, the “% inhibition T4 90' 10” value is 8.56% and the “% inhibition T4 180' 10” value is recorded as 3%. In addition, under “DRC-2, concentration 20”, the “% inhibition T4 10' 20” value was found to be 6.49%, the “% inhibition T4 40' 20” value was determined as 5.69%, the “% inhibition T4 90' 20” value turned out to be 5.54% and the “% inhibition T4 180' 20” value is on record as 1.84%. For the setting “DRC-2, concentration 40”, the “% inhibition T4 10' 40” value was 5.57%, the “% inhibition T4 40' 40” value was 5%, the “% inhibition T4 90' 40” value turned out to be 5% and the “% inhibition T4 180' 40” value is recorded as 2.2%. Also, where the note is “DRC-2, concentration 80”, the “% inhibition T4 10' 80” value is given as 11%, the “% inhibition T4 40' 80” value is given as 14%, the “% inhibition T4 90' 80” value was 17% and the “% inhibition T4 180' 80” value came out at 18%.
In the case of `Cc1ccc2c(C(=O)NCCc3cccnc3)cc(NC(=O)C(C)C)cc2n1` [KU0206096], the “% inhibition T4 10'” value was found to be 8% (DRC-2, concentration 5); 30% (DRC-2, concentration 10); 35% (DRC-2, concentration 80). For the same compound, the “% inhibition T4 40'” value is, setting by setting: (DRC-2, concentration 2.5) 8%; (DRC-2, concentration 20) 35%. Besides, the “% inhibition T4 90'” value is, setting by setting: (DRC-2, concentration 10) 28%; (DRC-2, concentration 20) 30%; (DRC-2, concentration 40) 34%. Moreover, the “% inhibition T4 180'” value by setting is: (DRC-2, concentration 40) 28%; (DRC-2, concentration 80) 34%.
